Key:
[1] = system: Long-Evans rats; experiment: 8 hour retention test on a twelve-arm radial maze (spatial memory); assay type: in vivo, rat; conditions: 60 min prior to information session, vs vehicle (p<0.02)
Experimental: 12-arm maze test: Behavioral testing was conducted by an experimenter who was blind to drug treatment. 12 Long-Evans rats trained to use a win-shift strategy were given an information trial. During the information trial, 5 of the 12 arms of the 12 arm maze were blocked so that rats were not able to consume food from those blocked arms but could obtain food from each of the 7 open arms. After this session rats were moved to their home cage and placed back in the animal holding room. […] A retroactive memory error is made when the rat enters an arm that was […] on the information trial.
. Physiological saline (NaCl) was used as vehicle. […]

[2] = system: rats; experiment: Object Recognition Task (episodic memory), 6 hour delay; conditions: for performance in the object recognition task: 6 h delay; for Recognition Score: vehicle 60%; for disruption of behavior: first four rats
Experimental: It is based on rodents' natural preference for exploring novel objects over familiar objects. The experimental protocol is as follows:
The experiment takes place over a total of 4 days. Objects used for testing included square 60-mL clear glass tablet bottles with a black phenolic cap (“bottle”) or […] high, 1¼-inch interior diameter aluminum electrical metal tubing conduit couplings (“conduit”). On the first 3 days, the rat was placed into a test box for 15 minutes of habituation. On the fourth day, two identical copies of the same object were arranged in the box, one in each of the near corners about ½ inch from the walls—two bottles for half of the rats, two conduits for the other half. The rat was brought to the test room, placed in the middle of the box facing the center of the back wall, and allowed to explore the objects for a 3-minute information trial, after which it was returned to its home cage and to the housing room. After a specified delay, one copy of the original object (“familiar,” not the copy already encountered) and one copy of the other object (“novel”) were arranged in the near corners, with positions counterbalanced to avoid bias, and the rat was placed back in the box for a recognition trial. […] The result of scoring is the time spent with the novel object, expressed as a %-age number (the “Recognition Score”)
Normal rats spend more time exploring the novel object, indicating memory for the sample object. Increases in the length of the delay, however, reduce the rat's ability to distinguish between the two objects in the recognition trial. For the testing of cognition-enhancing agents, a delay or inter-trial interval (ITI) is typically chosen at which complete forgetting normally occurs (i.e. where the time spent exploring both the novel and familiar object is equal), as this allows for considerable room for improvement in performance.
Both drugs were administered by intraperitoneal (IP) injection.
To generate a dose-effect curve for galantamine, various doses of this compound were administered to rats by IP injection 30 minutes prior to the information trial and compared to vehicle (0.5%-methyl cellulose)-treated controls (FIG. 7A).

[3] = cited from earlier work

In the case of `CCCCP(=O)(O)CCCN` [ABPA, 3-aminopropyl-(n-butyl)-phosphinic acid], the “retention test performance on the 12-arm maze” value ([1]; 150 mg/kg ABPA IP) is reported as “improved performance”, the “performance in the object recognition task” value ([2]; ABPA 3 and 30 mg/kg IP, 30 min prior to information trial, vs saline) is reported as “no beneficial effect” and the “performance in the object recognition task” value ([2]; ABPA 10, 100, 170, and 300 mg/kg IP, 30 min prior to information trial, vs saline) is reported as “significantly enhanced performance”. For the same molecule, the “Recognition Score” value ([2]; ABPA alone 3 mg/kg, Example 5 rivastigmine interaction study) was 58% and the “Recognition Score” value ([2]; ABPA alone 3 mg/kg, Example 6 galantamine interaction study) was 58%.
For `COc1cc2c(cc1OC)C(=O)C(CC1CCN(Cc3ccccc3)CC1)C2` (racemic) [donepezil, (±)-2,3-dihydro-5,6-dimethoxy-2-[[1-(phenylmethyl)-4-piperidinyl]methyl]-1H-inden-1-one], the “retention test performance on the 12-arm maze” value ([1]; 3 mg/kg donepezil IP) was “improved performance”, the “performance in the object recognition task” value ([2]; donepezil 1.7 mg/kg IP, 30 min prior to information trial) was “significantly improved performance” and the “adverse side effects in the rat” value ([2]; donepezil doses higher than 1.7 mg/kg IP) was “began to produce adverse side effects”.
In the case of `CCN(C)C(=O)Oc1cccc([C@H](C)N(C)C)c1` [rivastigmine], the disruption of behavior ([2]; rivastigmine 1 mg/kg IP) is reported as “grossly disrupted behavior”, the “effect on memory in the object recognition task” value ([2]; rivastigmine 0.01, 0.017, 0.03, 0.056, 0.17 and 0.3 mg/kg IP, vs vehicle) is reported as “no significant effect on memory” and the “performance in the object recognition task” value ([2]; rivastigmine 0.1 IP, 30 min prior, vs vehicle (p=0.056)) is reported as “approached a significant improvement in performance”. The “Recognition Score” value ([2]; rivastigmine alone 0.01 mg/kg) was 55%, the “Recognition Score” value ([2]; rivastigmine alone 0.017 mg/kg) was 59% and the half-life in humans [3] was “about 1.5 h”.
With `COc1ccc2c3c1O[C@H]1C[C@@H](O)C=C[C@@]31CCN(C)C2` [galantamine] the disruption of behavior ([2]; galantamine 3 mg/kg IP) was “gross disruption of behavior”, the “Recognition Score” value ([2]; galantamine alone 0.17 mg/kg) was 55% and the “Recognition Score” value ([2]; galantamine alone 0.3 mg/kg) was 62%. The half-life in humans [3] was 5 to 6 h.
